From patent US8648066B2 (Exelixis, Inc., priority 2009, dated 2014)

Tests used:
[1] = biological target: mTOR/GbL/Raptor (mTORC1) (Homo sapiens, UniProt P42345); assay: mTOR/GbL/Raptor (mTORC1) ELISA assay; format: biochemical; conditions: phosphorylation of 4E-BP1; 0.2 nM mTORC1, 10 μM ATP; read-out: IC50 in this assay (mTORC1 ELISA)
How it was run: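 ELISA read-out: phospho-4E-BP1 captured on Ni-chelate plates and detected with anti-phospho antibody plus HRP-anti-IgG luminescence. The kinase step ran 120 min at ambient temperature with 0.2 nM human mTORC1, 10 µM ATP, 50 nM His-4E-BP1, 10 mM MnCl2, pH 7.2 HEPES.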

[2] = biological target: PI3Kα (Homo sapiens, UniProt P42336); assay: PI3K biochemical assay (luciferase-luciferin ATP consumption); conditions: 1.5 nM enzyme, 1 μM ATP, 10 μM PIP2; read-out: IC50 for PI3Kα in this assay
Sequence of PI3Kα (P42336 whole entry, species assumed): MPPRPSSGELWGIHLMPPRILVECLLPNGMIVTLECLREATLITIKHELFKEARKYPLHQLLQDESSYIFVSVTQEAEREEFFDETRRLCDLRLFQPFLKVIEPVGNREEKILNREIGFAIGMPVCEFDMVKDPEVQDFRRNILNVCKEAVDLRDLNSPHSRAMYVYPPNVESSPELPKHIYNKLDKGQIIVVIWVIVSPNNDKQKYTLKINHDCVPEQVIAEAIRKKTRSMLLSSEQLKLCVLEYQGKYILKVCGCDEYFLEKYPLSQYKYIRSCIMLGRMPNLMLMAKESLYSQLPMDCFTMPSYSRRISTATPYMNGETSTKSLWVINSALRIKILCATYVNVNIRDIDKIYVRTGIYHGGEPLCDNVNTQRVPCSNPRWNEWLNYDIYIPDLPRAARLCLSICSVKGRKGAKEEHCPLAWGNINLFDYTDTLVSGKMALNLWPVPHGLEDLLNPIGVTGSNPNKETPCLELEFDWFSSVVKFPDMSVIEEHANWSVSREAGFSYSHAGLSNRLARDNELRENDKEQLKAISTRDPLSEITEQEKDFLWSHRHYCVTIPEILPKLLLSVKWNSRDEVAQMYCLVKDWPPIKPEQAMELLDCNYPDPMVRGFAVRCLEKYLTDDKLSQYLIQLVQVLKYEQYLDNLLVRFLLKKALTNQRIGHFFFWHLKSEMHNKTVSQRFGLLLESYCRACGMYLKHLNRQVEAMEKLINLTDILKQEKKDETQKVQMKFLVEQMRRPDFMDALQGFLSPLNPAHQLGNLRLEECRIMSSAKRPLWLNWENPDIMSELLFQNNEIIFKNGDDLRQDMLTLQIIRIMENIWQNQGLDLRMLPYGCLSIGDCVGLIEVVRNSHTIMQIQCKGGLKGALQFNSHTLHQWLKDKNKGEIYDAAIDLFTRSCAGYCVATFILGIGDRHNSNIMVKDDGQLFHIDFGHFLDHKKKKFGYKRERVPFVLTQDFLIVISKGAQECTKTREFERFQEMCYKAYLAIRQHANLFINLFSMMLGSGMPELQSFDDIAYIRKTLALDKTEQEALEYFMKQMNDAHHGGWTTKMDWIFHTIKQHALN
Sequence of PI3Kα (P27986 whole entry partner, species assumed): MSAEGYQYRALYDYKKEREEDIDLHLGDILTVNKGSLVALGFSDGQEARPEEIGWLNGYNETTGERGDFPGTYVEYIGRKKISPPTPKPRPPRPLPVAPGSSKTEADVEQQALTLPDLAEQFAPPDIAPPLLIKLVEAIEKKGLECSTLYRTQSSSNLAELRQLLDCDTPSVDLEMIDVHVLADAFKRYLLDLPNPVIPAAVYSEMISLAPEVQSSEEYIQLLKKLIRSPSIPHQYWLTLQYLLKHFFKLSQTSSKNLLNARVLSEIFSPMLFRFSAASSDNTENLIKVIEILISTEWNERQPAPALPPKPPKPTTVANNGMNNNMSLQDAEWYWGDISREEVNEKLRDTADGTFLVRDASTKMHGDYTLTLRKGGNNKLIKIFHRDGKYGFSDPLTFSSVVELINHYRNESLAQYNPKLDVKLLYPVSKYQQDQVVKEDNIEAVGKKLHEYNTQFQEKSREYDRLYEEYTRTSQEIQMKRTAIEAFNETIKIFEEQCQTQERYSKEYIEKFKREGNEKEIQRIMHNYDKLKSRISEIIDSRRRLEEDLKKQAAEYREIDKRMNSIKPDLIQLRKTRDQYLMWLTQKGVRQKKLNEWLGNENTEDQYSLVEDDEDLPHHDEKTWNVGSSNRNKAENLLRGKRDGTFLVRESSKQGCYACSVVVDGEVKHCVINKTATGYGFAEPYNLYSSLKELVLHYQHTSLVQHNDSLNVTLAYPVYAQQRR
Protocol: PI3Kα activity is measured as the percent of ATP consumed following the kinase reaction using luciferase-luciferin-coupled chemiluminescence. Reactions were conducted in 384-well white, medium binding microtiter plates (Greiner). Kinase reactions were initiated by combining test compounds, ATP, substrate (PIP2), and kinase in a 20 μL volume in a buffer solution. The standard PI3Kalpha assay buffer is composed 50 mM Tris, pH 7.5, 1 mM EGTA, 10 mM MgCl2, 1 mM DTT and 0.03% CHAPS. The standard assay concentrations for enzyme, ATP, and substrate are 1.5 nM, 1 μM, and 10 μM, respectively. The reaction mixture was incubated at ambient temperature for approximately 2 h. Following the kinase reaction, a 10 μL aliquot of luciferase-luciferin mix (Promega Kinase-Glo) was added and the chemiluminescence signal measured using a Victor2 plate reader (Perkin Elmer). Total ATP consumption was limited to 40-60% and IC50 values of control compounds correlate well with literature references. Substituting PI3Kα with PI3Kβ, PI3Kγ, or PI3Kδ, the inhibitory activity of the compounds for the other isoforms of I3K were measured.

IC50 [1] [nM]	IC50 [2] [nM]	Structure (SMILES)
250 to 1000	≥ 2000	Cc1nc2ncc(-c3ccc4c(c3)CN(c3ncnc5c3ccn5C)CCO4)cc2[nH]1 [Example 557, 7-(2-methyl-1H-imidazo[4,5-b]pyridin-6-yl)-4-(7-methyl-7H-pyrrolo[2,3-d]pyrimidin-4-yl)-2,3,4,5-tetrahydro-1,4-benzoxazepine]
250 to 1000	1000 to 2000	Cc1ncc(S(=O)(=O)N2CCOCC2)c(N2CCOc3ccc(-c4cnc5nc(C)[nH]c5c4)cc3C2)n1 [Example 561, 7-(2-methyl-1H-imidazo[4,5-b]pyridin-6-yl)-4-[2-methyl-5-(morpholin-4-ylsulfonyl)pyrimidin-4-yl]-2,3,4,5-tetrahydro-1,4-benzoxazepine]
250 to 1000	1000 to 2000	Cc1nc2ncc(-c3ccc4c(c3)CN(c3ncnc5c3C(C(F)(F)F)CCC5)CCO4)cc2[nH]1 (centres unmarked) [Example 562, 7-(2-methyl-1H-imidazo[4,5-b]pyridin-6-yl)-4-[5-(trifluoromethyl)-5,6,7,8-tetrahydroquinazolin-4-yl]-2,3,4,5-tetrahydro-1,4-benzoxazepine]
≥ 2000	1000 to 2000	CC1(C)CCc2ncnc(N3CCOc4ccc(-c5cnc6c(c5)OCC(=O)N6)cc4C3)c2C1 [Example 572, 7-[4-(6,6-dimethyl-5,6,7,8-tetrahydroquinazolin-4-yl)-2,3,4,5-tetrahydro-1,4-benzoxazepin-7-yl]-2H-pyrido[3,2-b][1,4]oxazin-3(4H)-one]
1000 to 2000	≥ 2000	COC(=O)Nc1cc(-c2ccc3c(c2)CN(c2ncnc4c2CC(C)(C)CC4)CCO3)cnc1Cl [Example 581, methyl {2-chloro-5-[4-(6,6-dimethyl-5,6,7,8-tetrahydroquinazolin-4-yl)-2,3,4,5-tetrahydro-1,4-benzoxazepin-7-yl]pyridin-3-yl}carbamate]
250 to 1000	1000 to 2000	Cc1ncc(S(=O)(=O)N(C)C)c(N2CCOc3ccc(-c4cnc5nc(C)[nH]c5c4)cc3C2)n1 [Example 611, N,N,2-trimethyl-4-[7-(2-methyl-1H-imidazo[4,5-b]pyridin-6-yl)-2,3-dihydro-1,4-benzoxazepin-4(5H)-yl]pyrimidine-5-sulfonamide]
250 to 1000	1000 to 2000	CC(=O)Nc1cc(-c2ccc3c(c2)CN(c2ncnc4c2CC(C)(C)CC4)CCO3)cnc1Cl [Example 622, N-{2-chloro-5-[4-(6,6-dimethyl-5,6,7,8-tetrahydroquinazolin-4-yl)-2,3,4,5-tetrahydro-1,4-benzoxazepin-7-yl]pyridin-3-yl}acetamide]
≥ 2000	≥ 2000	CCNC(=O)c1cccc(-c2ccc3c(c2)CN(c2nc(C)nc4cc(OC)ccc24)CCO3)c1 [Example 638, N-ethyl-3-{4-[2-methyl-7-(methyloxy)quinazolin-4-yl]-2,3,4,5-tetrahydro-1,4-benzoxazepin-7-yl}benzamide]
250 to 1000	≥ 2000	C[C@H](NC(=O)OCc1ccccc1)c1nc2ncc(-c3ccc4c(c3)CN(c3ncnc5c3CC(C)(C)CC5)CCO4)cc2[nH]1 [Example 647, phenylmethyl [(1S)-1-{6-[4-(6,6-dimethyl-5,6,7,8-tetrahydroquinazolin-4-yl)-2,3,4,5-tetrahydro-1,4-benzoxazepin-7-yl]-1H-imidazo[4,5-b]pyridin-2-yl}ethyl]carbamate]
250 to 1000	1000 to 2000	Cc1cc(N2CCOc3ccc(-c4ccc5[nH]cnc5c4)cc3C2)nc(N)n1 [Example 688, 4-[7-(1H-benzimidazol-5-yl)-2,3-dihydro-1,4-benzoxazepin-4(5H)-yl]-6-methylpyrimidin-2-amine]
